Data reported in patent US20180028553A1, “USE OF STING AGONIST AS CANCER TREATMENT” (The University of Chicago, priority 2013, published 2018).
Entries after “also recorded” stand apart in the source; their conditions may differ.

Assays:
[1] = tested on: BM-DCs (CD40, CD86, MHC class II); test: Expression of activation markers on BM-DCs by flow cytometry; format: cell-based, mouse; conditions: WT versus STING-deficient BM-DCs; DMXAA 25 μg/ml or LPS 100 ng/ml
Method: Expression of activation markers by flow cytometry. […] Stained cells were analyzed using LSR II cytometer with FACSDiva software (BD) or FACSVerse with FACSuite software. Data analysis was conducted with FlowJo software (Tree Star).

TRAMP-C2 tumors = test: Intratumoral treatment of TRAMP-C2 tumors; format: in vivo, mouse; conditions: C57BL/6 mice, single IT dose of 500 μg DMXAA
Method: (§1) In vivo tumor experiments. 10^6 of B16-SIY tumor cells, 5×10^4 B16.F10 tumor cells, 10^5 4T1 and CT26, or 10^6 other tumor cells were injected s.c. in 100 μl DPBS or HBSS on the right flank of mice. Following tumor implantation, mice were randomized into treatment groups. […] Measurements of tumors were performed twice per week using calipers, and the tumor volume was calculated with the formula: V=(length×width^2)/2. In some experiments, tumor-free survivors were rechallenged with tumor cells on the opposite flank several weeks after the injection of the primary tumor. Naïve mice were used as controls. For the contralateral experiments, mice were implanted on both flanks and only one tumor was treated. For the B16 melanoma lung metastasis experiments, mice were implanted on the flank with 5×10^4 cells B16.F10 on day 0, and then injected intravenously with 1×10^5 cells on day 7. Lungs were harvested on day 28. Administration of compounds, measurements of tumors and counting of lung tumors were performed in a blinded fashion.

Ag104L tumors = test: Intratumoral treatment of Ag104L tumors; format: in vivo, mouse; conditions: C3H mice, single IT dose of 500 μg DMXAA
Method: as §1

B16.SIY tumors = format: in vivo
Method: As a comparison, the cyclic dinucleotide compounds from Aduro will be injected into tumors in parallel sets of mice. Tumor volumes are estimated twice a week using the formula described above.
as §1

`Cc1ccc2c(=O)c3cccc(CC(=O)O)c3oc2c1C` [DMXAA, 5,6-dimethylXAA (xanthenone-4-acetic acid)] was tested, and the “induction of co-stimulatory molecules (CD40, CD86, MHC class II)” value [1] was “upregulated activation markers such as CD40 and C86 in a STING dependent manner; also recorded: observed only in WT cells”, the tumor growth (TRAMP-C2 tumors) was “significantly reduced the growth” and the tumor growth (Ag104L tumors) was “significantly reduced the growth”. The “mice that reject the tumors” value (B16.SIY tumors; WT B6 mice, tumors 100-200 mm3, single intratumoral dose) was 80-90%, the “tumor regression and rejection” value (B16.SIY tumors; WT mice, single IT dose of 500 μg at day 7) was “potent tumor regression in all animals and complete tumor rejection in the majority of mice” and the “regression of injected and non-injected secondary tumor” value (B16.SIY tumors; tumors in both flanks, only one treated IT) was “Tumor regression was observed in both sites”.
